Measurements from ChEMBL document CHEMBL1944527, “Structure-based library design and the discovery of a potent and selective mast cell β-tryptase inhibitor as an oral therapeutic agent” (Bioorg Med Chem Lett, 2012).

Experiments:
[1] = Inhibition of human recombinant beta tryptase using S-2366 as substrate after 30 mins by spectrophotometry
Prothrombin = Prothrombin (Homo sapiens, UniProt P00734); assay: Inhibition of thrombin
Coagulation factor X = Coagulation factor X (Homo sapiens, UniProt P00742); assay: Inhibition of Coagulation factor 10a
Chymase = target: T1, Chymase (Homo sapiens, UniProt P23946); assay: Inhibition of chymase
T1 sequence (P23946 whole entry): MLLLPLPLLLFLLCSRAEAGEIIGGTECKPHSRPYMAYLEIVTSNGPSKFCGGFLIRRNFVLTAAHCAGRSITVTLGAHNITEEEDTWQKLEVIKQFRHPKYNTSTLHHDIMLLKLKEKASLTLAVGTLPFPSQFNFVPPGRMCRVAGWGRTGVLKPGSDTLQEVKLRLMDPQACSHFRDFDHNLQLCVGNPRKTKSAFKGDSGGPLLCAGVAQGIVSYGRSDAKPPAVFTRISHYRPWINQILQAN

[2] = Oral bioavailability in rat at 10 mg/kg; format: ADME, organism-based; details: in vivo
[3] = Inhibition of trypsin
[4] = Half life in rat plasma at 2 mg/kg, iv
[5] = Inhibition of elastase
[6] = Plasma clearance in rat at 2 mg/kg, iv and 10 mg/kg, po
[7] = Volume of distribution at steady state in rat at 2 mg/kg, iv and 10 mg/kg, po; details: in vivo, read-out: Vdss
[8] = Cmax in rat at 10 mg/kg, po; format: ADME, organism-based; design: dose 10 mg/kg, route oral; details: in vivo
[9] = Tmax in rat at 10 mg/kg, po; format: ADME, organism-based; design: dose 10 mg/kg, route oral; details: in vivo

Coagulation factor X, sequence (P00742 41-179 limits assumed): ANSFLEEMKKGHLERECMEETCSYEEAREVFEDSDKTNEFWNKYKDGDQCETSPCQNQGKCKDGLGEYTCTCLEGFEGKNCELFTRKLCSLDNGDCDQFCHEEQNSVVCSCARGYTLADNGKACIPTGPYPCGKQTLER
Coagulation factor X, sequence (P00742 235-488 limits assumed): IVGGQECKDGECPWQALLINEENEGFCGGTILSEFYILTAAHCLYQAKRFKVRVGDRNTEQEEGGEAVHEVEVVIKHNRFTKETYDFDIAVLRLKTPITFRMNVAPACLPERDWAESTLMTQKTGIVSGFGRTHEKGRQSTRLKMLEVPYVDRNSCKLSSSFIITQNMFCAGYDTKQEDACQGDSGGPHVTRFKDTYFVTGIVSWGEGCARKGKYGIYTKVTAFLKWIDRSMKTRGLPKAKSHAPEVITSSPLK

NCc1cccc(C2CCN(C(=O)c3ccc(C#Cc4ccc(Cl)cc4)o3)CC2)c1
Ki [1]: 166 nM

NCc1cccc(C2CCN(C(=O)c3ccc(C#Cc4ccc(F)c(F)c4)o3)CC2)c1
Ki [1]: 742 nM

NCc1cccc(C2CCN(C(=O)c3ccc(C#Cc4cccc(F)c4)o3)CC2)c1
Ki [1]: 98 nM

NCc1cccc(C2CCN(C(=O)c3ccc(C#Cc4ncccn4)o3)CC2)c1
Ki [1]: 157 nM

NCc1cccc(C2CCN(C(=O)c3ccc(C#Cc4ccccn4)o3)CC2)c1.O=C(O)C(F)(F)F
IC50 (Prothrombin): > 100000 nM
IC50 (Coagulation factor X): 9000 nM
IC50 (Chymase): > 100000 nM
bioavailability [2]: 0%
IC50 [3]: > 100000 nM
half-life [4]: 0.46 h
Ki [1]: 5 nM
IC50 [5]: > 100000 nM
clearance [6]: 310 mL/min/kg

NCc1cccc(C2CCN(C(=O)c3ccc(C#Cc4ccc(F)cc4)o3)CC2)c1
Ki [1]: 279 nM

NCc1cccc(C2CCN(C(=O)c3ccc(C#Cc4ccc(Cl)nc4)o3)CC2)c1
Ki [1]: 101 nM

NCc1cccc(C2CCN(C(=O)c3ccc(C#Cc4ccccc4Cl)o3)CC2)c1
Ki [1]: 22 nM

Cc1ccc(C#Cc2ccc(C(=O)N3CCC(c4cccc(CN)c4)CC3)o2)cc1
Ki [1]: 112 nM

NCc1cccc(C2CCN(C(=O)c3ccc(C#Cc4cnccn4)o3)CC2)c1
Ki [1]: 2770 nM

NCc1cccc(C2CCN(C(=O)c3ccc(C#Cc4cccnc4)o3)CC2)c1
Ki [1]: 84 nM

NCc1cccc(C2CCN(C(=O)c3ccc(C#Cc4ccsc4)o3)CC2)c1
Ki [1]: 327 nM

NCc1cccc(C2CCN(C(=O)c3ccc(C#Cc4cccs4)o3)CC2)c1
Ki [1]: 236 nM

NCc1cccc(C2CCN(C(=O)c3ccc(C#Cc4ncccc4F)o3)CC2)c1
Ki [1]: 27 nM

Cc1ccccc1C#Cc1ccc(C(=O)N2CCC(c3cccc(CN)c3)CC2)o1
Ki [1]: 324 nM

NCc1cccc(C2CCN(C(=O)c3ccc(C#Cc4ccc(F)cc4F)o3)CC2)c1
Ki [1]: 67 nM

NCc1cccc(C2CCN(C(=O)c3ccc(C#Cc4ccccc4F)o3)CC2)c1.O=C(O)C(F)(F)F
IC50 (Prothrombin): > 100000 nM
IC50 (Coagulation factor X): > 100000 nM
IC50 (Chymase): > 100000 nM
Vd [7]: 18.5 L/kg
bioavailability [2]: 77%
Cmax [8]: 121 ng/mL
IC50 [3]: > 100000 nM
half-life [4]: 2.2 h
Tmax [9]: 3.7 h
IC50 [5]: > 100000 nM
clearance [6]: 140 mL/min/kg

NCc1cccc(C2CCN(C(=O)c3ccc(C#Cc4ccccc4)o3)CC2)c1.O=C(O)C(F)(F)F
IC50 (Prothrombin): > 100000 nM
IC50 (Coagulation factor X): > 100000 nM
IC50 (Chymase): > 100000 nM
Vd [7]: 14.1 L/kg
bioavailability [2]: 32%
Cmax [8]: 68 ng/mL
IC50 [3]: > 100000 nM
half-life [4]: 2.5 h
Tmax [9]: 3.3 h
Ki [1]: 31 nM
IC50 [5]: > 100000 nM
clearance [6]: 85 mL/min/kg
